For assay [1], the target named is Human immunodeficiency virus type 1 reverse transcriptase (Human immunodeficiency virus 1, UniProt Q72547). Kind of assay: Inhibitory activity against HIV rRT activity in wild type IIIB strain.
Assay [2] has as its target Human immunodeficiency virus type 1 reverse transcriptase (Human immunodeficiency virus 1, UniProt Q72547, L100I). The experiment in a line: Inhibitory activity against HIV rRT activity in HIV-1 mutant resistant to TIBO(L100I) strain.
The target of assay [3] is Human immunodeficiency virus type 1 reverse transcriptase (Human immunodeficiency virus 1, UniProt Q72547, Y181C). The experiment in a line: Inhibitory activity against HIV rRT activity in mutant HIV-1 strain resistant to Nevirapine (Y181C).
In assay [4] the test system is MT4. The experiment in a line: Effective concentration against HIV-1 induced cytopathogenicity in MT-4 cells. The assay is classed as functional, cell-based. The conditions noted are these: Homo sapiens.
Assay [5] deals with Human immunodeficiency virus type 2 pol protein (Human immunodeficiency virus 2, UniProt P88142). Kind of assay: Inhibitory activity against HIV rRT activity in HIV-2.
Chain of Human immunodeficiency virus type 2 pol protein (P88142 whole entry): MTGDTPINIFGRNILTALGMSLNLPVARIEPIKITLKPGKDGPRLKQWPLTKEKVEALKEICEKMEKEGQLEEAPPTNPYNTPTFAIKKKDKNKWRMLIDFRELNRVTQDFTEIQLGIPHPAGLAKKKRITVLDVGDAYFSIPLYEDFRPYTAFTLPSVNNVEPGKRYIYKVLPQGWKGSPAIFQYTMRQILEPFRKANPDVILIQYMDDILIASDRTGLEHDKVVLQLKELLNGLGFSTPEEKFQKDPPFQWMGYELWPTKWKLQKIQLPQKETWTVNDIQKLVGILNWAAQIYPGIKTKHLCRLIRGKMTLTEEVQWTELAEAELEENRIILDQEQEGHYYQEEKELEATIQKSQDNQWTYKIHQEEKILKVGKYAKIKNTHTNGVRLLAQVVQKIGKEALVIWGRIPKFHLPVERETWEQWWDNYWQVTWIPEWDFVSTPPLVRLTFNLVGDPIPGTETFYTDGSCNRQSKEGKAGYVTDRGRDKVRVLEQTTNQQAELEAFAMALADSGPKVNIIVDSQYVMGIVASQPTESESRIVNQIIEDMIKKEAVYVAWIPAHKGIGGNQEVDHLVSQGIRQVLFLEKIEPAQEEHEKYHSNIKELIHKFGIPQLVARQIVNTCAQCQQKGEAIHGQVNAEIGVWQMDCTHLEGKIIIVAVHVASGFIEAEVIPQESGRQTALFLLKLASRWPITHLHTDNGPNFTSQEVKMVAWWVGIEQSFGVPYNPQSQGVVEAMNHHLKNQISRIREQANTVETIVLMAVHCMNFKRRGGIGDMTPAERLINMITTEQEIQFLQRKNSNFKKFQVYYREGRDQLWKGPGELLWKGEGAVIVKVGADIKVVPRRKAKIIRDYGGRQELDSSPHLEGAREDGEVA
For assay [6], the system named is MT4. Kind of assay: Selectivity index expressed as the ratio of CC50/ EC50. The assay is classed as functional, Homo sapiens.
The subject of assay [7] is MT4. Kind of assay: Concentration required to reduce the viability of mock-infected MT-4 cells by 50%. The assay is classed as functional. As to conditions: Homo sapiens.

For `CCOC(=O)CC(=O)Nc1ccc(Cl)cc1S(=O)(=O)n1cccc1C(=O)OCC`, the IC50 in assay [1], in assay [2], in assay [3] and in assay [5] was greater than 20 µM in each case. A half-maximal response in assay [4] (EC50) required 2.6 µM. For the same molecule, in assay [6], the Ratio is recorded as 111. Moreover, the CC50 in assay [7] was 290 µM.

With `CCOC(=O)c1cccn1S(=O)(=O)c1cc(Cl)ccc1NC(=O)CC`, the IC50 in assay [1], in assay [2], in assay [3] and in assay [5] was greater than 20 µM throughout. The EC50 in assay [4] was 1 µM. In addition, in assay [6], the Ratio is on record as greater than 300. The molecule further came in with a CC50 in assay [7] greater than 300 µM.

Consider `C=CCOC(=O)c1cccn1S(=O)(=O)c1cc(Cl)ccc1N`, for which the IC50 in assay [1] was 0.9 µM; in assay [2] it was greater than 20 µM; in assay [3], 14 µM; in assay [5], greater than 20 µM. This molecule also yielded an EC50 in assay [4] of 0.4 µM. The Ratio in assay [6] is listed as 250. This molecule displayed a CC50 in assay [7] of 100 µM.

For `CC(C)OC(=O)c1cccn1S(=O)(=O)c1cc(Cl)ccc1N`, the IC50 in assay [1] is 0.27 µM; in assay [2], 14 µM; in assay [3] it was 8 µM; in assay [5] it was greater than 20 µM. The molecule further had an EC50 in assay [4] of 0.14 µM. Also, in assay [6], the Ratio is greater than 2140. In assay [7], the CC50 is greater than 300 µM.

`CCOC(=O)c1cccn1S(=O)(=O)c1cc(Cl)ccc1NC(C)=O`: the IC50 in assay [1], in assay [2], in assay [3] and in assay [5] was greater than 20 µM each time. The same molecule returned an EC50 in assay [4] of 1 µM. In addition, in assay [6], the Ratio entry is given as “>=300”. For the same molecule, in assay [7], the CC50 is greater than 300 µM.

In the case of `COC(=O)c1cccn1S(=O)(=O)c1cc(Cl)ccc1N`, the IC50 is 0.45 µM in assay [1], 7.4 µM in assay [2], 6.9 µM in assay [3] and greater than 20 µM in assay [5]. The molecule further yielded an EC50 in assay [4] of 0.18 µM. For the same molecule, the Ratio in assay [6] is greater than 1666. Further, the 50% cytotoxic concentration (CC50) in assay [7] was greater than 300 µM.

`CCCOC(=O)c1cccn1S(=O)(=O)c1cc(Cl)ccc1N`: the IC50 was 0.4 µM in assay [1], 10 µM in assay [2], 5 µM in assay [3] and greater than 20 µM in assay [5]. Further, the EC50 in assay [4] was 0.22 µM. The Ratio in assay [6] was 500. The molecule further gave a CC50 in assay [7] of 110 µM.

Turning to `CCOC(=O)c1cccn1S(=O)(=O)c1cc(Cl)ccc1NC=O`, the IC50 in assay [1], in assay [2], in assay [3] and in assay [5] was greater than 20 µM each time. The molecule further had an EC50 in assay [4] of 1 µM. Besides, in assay [6], the Ratio is greater than 300. This molecule showed a CC50 in assay [7] greater than 300 µM.

The term IC50 denotes the concentration that gives 50% inhibition. A high value points to weaker potency. What is called EC50 is the concentration giving half of the maximal effect. As usually defined, the CC50 is the concentration giving 50% cytotoxicity. Read a high CC50 as better tolerance by the cells.

(Values after ChEMBL document CHEMBL1129665, “2-Sulfonyl-4-chloroanilino moiety: a potent pharmacophore for the anti-human immunodeficiency virus type 1 activity of pyrrolyl aryl sulfones” (J Med Chem, 1996).)
